According to patent US11203600B2 (Denali Therapeutics Inc., priority 2017, dated 2021):

Target: GST-hRIPK1 (8-327) (Homo sapiens (Human), UniProt Q13546)
Assay: Fluorescent Polarization Binding (FP Binding) assay, RIPK1
Settings: 10 nM GST-hRIPK1 (8-327), 5 nM fluorescent-labeled ligand, RT, 30 min, mean of at least two independent experiments
How it was run: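 Binding by fluorescence polarisation at RT: 10 nM baculovirus-expressed GST-hRIPK1 (8-327) and 5 nM fluorescent ligand, 30 min, in 50 mM HEPES pH 7.5, 50 mM MgCl2, 0.02% CHAPS, 1% DMSO. FP read at ex 531/em 595 nm. IC50 from normalised percent inhibition, mean of ≥2 experiments.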

GST-hRIPK1 (8-327), sequence (Q13546 8-327): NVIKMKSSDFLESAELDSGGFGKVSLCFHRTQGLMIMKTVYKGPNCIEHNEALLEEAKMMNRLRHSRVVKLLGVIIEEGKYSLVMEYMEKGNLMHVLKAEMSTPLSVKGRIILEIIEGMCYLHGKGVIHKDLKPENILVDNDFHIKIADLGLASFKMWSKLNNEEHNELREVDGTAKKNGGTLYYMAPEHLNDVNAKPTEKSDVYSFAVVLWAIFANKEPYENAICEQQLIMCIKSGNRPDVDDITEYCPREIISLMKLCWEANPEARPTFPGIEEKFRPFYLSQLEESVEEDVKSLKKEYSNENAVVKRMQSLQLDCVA

Compound | IC50 [nM]
COc1nc(N2CCC(C(=O)N3CCOc4c(C#N)cncc4C3)CC2)ncc1Cl [Example 129, 4-[1-(5-chloro-4-methoxy-pyrimidin-2-yl)piperidine-4-carbonyl]-3,5-dihydro-2H-pyrido[3,4-f][1,4]oxazepine-9-carbonitrile] | 0.1 to 100
CC(C#N)C(C)(C)C(=O)N1CCOc2c(C#N)cncc2C1 (centres unmarked) [Example 72] | 100 to 1000
COc1ccc(N2CCC(F)(C(=O)N3CCOc4c(C#N)cncc4C3)CC2)nn1 [Example 115, 4-[4-fluoro-1-(6-methoxypyridazin-3-yl)piperidine-4-carbonyl]-3,5-dihydro-2H-pyrido[3,4-f][1,4]oxazepine-9-carbonitrile] | 100 to 1000
COc1nccc(N2CCC(F)(C(=O)N3CCOc4c(C#N)cncc4C3)CC2)n1 [Example 172, 4-[4-fluoro-1-(2-methoxypyrimidin-4-yl)piperidine-4-carbonyl]-3,5-dihydro-2H-pyrido[3,4-f][1,4]oxazepine-9-carbonitrile] | 100 to 1000
N#Cc1cccc2c1OCCN(C(=O)C1CCN(c3ncc(F)cn3)CC1)C2 [Example 183, 4-[1-(5-fluoropyrimidin-2-yl)piperidine-4-carbonyl]-3,5-dihydro-2H-1,4-benzoxazepine-9-carbonitrile] | 0.1 to 100
C[C@@H]1COc2c(C#N)cncc2CN1C(=O)C1(F)CCN(c2ncc(F)cn2)CC1 [Example 86, (3R)-4-[4-fluoro-1-(5-fluoropyrimidin-2-yl)piperidine-4-carbonyl]-3-methyl-3,5-dihydro-2H-pyrido[3,4-f][1,4]oxazepine-9-carbonitrile] | 0.1 to 100
N#Cc1cncc2c1OCCN(C(=O)C1(F)CCN(c3cc4ccccc4cn3)CC1)C2 [Example 199, 4-[4-fluoro-1-(3-isoquinolyl)piperidine-4-carbonyl]-3,5-dihydro-2H-pyrido[3,4-f][1,4]oxazepine-9-carbonitrile] | 0.1 to 100
CC(C)(C(=O)N1CCOc2ncccc2C1)C(F)F [Example 34, 1-(2,3-dihydropyrido[3,2-f][1,4]oxazepin-4(5H)-yl)-3,3-difluoro-2,2-dimethylpropan-1-one] | > 1000
N#Cc1cncc2c1OCCN(C(=O)C1(F)CCN(c3ccncn3)CC1)C2 [Example 88, 4-(4-fluoro-1-pyrimidin-4-yl-piperidine-4-carbonyl)-3,5-dihydro-2H-pyrido[3,4-f][1,4]oxazepine-9-carbonitrile] | 100 to 1000
CC1COc2ccccc2CN1C(=O)C(C)(C)C(F)F (centres unmarked) [Example 21, 3,3-difluoro-2,2-dimethyl-1-(3-methyl-2,3-dihydrobenzo[f][1,4]oxazepin-4(5H)-yl)propan-1-one] | 0.1 to 100
N#Cc1cncc2c1OCCN(C(=O)[C@]13CCN(c4ncc(F)cn4)C[C@H]1C3)C2 (relative stereo) [Example 89, 4-(cis-3-(5-fluoropyrimidin-2-yl)-3-azabicyclo[4.1.0]heptane-6-carbonyl)-3,5-dihydro-2H-pyrido[3,4-f][1,4]oxazepine-9-carbonitrile] | 0.1 to 100
N#Cc1cncc2c1OCCN(C(=O)C1(F)CCN(c3ccc4nccn4n3)CC1)C2 [Example 109, 4-(4-fluoro-1-imidazo[1,2-b]pyridazin-6-yl-piperidine-4-carbonyl)-3,5-dihydro-2H-pyrido[3,4-f][1,4]oxazepine-9-carbonitrile] | 100 to 1000
N#Cc1cncc2c1OCCN(C(=O)C(F)(F)C(F)(F)C(F)(F)F)C2 [Example 143, 4-(2,2,3,3,4,4,4,-heptafluorobutanoyl)-3,5-dihydro-2H-pyrido[3,4-f][1,4]oxazepine-9-carbonitrile] | > 1000
N#Cc1cncc2c1OCCN(C(=O)C1(F)CCN(c3cccnn3)CC1)C2 [Example 116, 4-(4-fluoro-1-pyridazin-3-yl-piperidine-4-carbonyl)-3,5-dihydro-2H-pyrido[3,4-f][1,4]oxazepine-9-carbonitrile] | 100 to 1000
CC(C#N)C(C)(C)C(=O)N1CCOc2c(F)cncc2C1 (centres unmarked) [Example 71, 4-(9-fluoro-2,3-dihydropyrido[3,4-f][1,4]oxazepin-4(5H)-yl)-2,3,3-trimethyl-4-oxobutanenitrile] | > 1000
N#Cc1cncc2c1OCCN(C(=O)C1(F)CCN(c3ncc4c(n3)COC4)CC1)C2 [Example 165, 4-[1-(5,7-dihydrofuro[3,4-d]pyrimidin-2-yl)-4-fluoro-piperidine-4-carbonyl]-3,5-dihydro-2H-pyrido[3,4-f][1,4]oxazepine-9-carbonitrile] | 100 to 1000
N#Cc1cncc2c1OCCN(C(=O)C1CCCN(c3ncc(F)cn3)CC1)C2 (centres unmarked) [Example 92, 4-[1-(5-fluoropyrimidin-2-yl)azepane-4-carbonyl]-3,5-dihydro-2H-pyrido[3,4-f][1,4]oxazepine-9-carbonitrile] | 100 to 1000
CC(C)(C(=O)N1CCOc2c(C#N)cncc2C1)C(F)F [Example 29, 4-(3,3-difluoro-2,2-dimethyl-propanoyl)-3,5-dihydro-2H-pyrido[3,4-f][1,4]oxazepine-9-carbonitrile] | 0.1 to 100
COc1ccc2c(c1)OCCN(C(=O)C(C)(C)C(F)F)C2 [Example 12, 3,3-difluoro-1-(8-methoxy-3,5-dihydro-2H-14-benzoxazepin-4-yl)-2,2-dimethyl-propan-1-one] | 100 to 1000
CC(C)(C(=O)N1CCCc2ccccc2C1)C(F)F [Example 5, 3,3-difluoro-2,2-dimethyl-1-(1,3,4,5-tetrahydro-2-benzazepin-2-yl)propan-1-one] | 100 to 1000
COc1ncc(F)c(N2CCC(F)(C(=O)N3CCOc4c(C#N)cncc4C3)CC2)n1 [Example 114, 4-[4-fluoro-1-(5-fluoro-2-methoxy-pyrimidin-4-yl)piperidine-4-carbonyl]-3,5-dihydro-2H-pyrido[3,4-f][1,4]oxazepine-9-carbonitrile] | 0.1 to 100
N#Cc1cncc2c1OCCN(C(=O)C1(F)CCN(c3ncccn3)CC1)C2 [Example 157, 4-(4-fluoro-1-pyrimidin-2-yl-piperidine-4-carbonyl)-3,5-dihydro-2H-pyrido[3,4-f][1,4]oxazepine-9-carbonitrile] | 0.1 to 100
O=C(C1CCN(c2ncc(F)cn2)CC1)N1CCOc2ccccc2C1 [Example 8, 3,5-dihydro-2H-1,4-benzoxazepin-4-yl-[1-(5-fluoropyrimidin-2-yl)-4-piperidyl]methanone] | 0.1 to 100
CC1(C(=O)N2CCOc3c(C#N)cncc3C2)CCOCC1 [Example 41, 4-(4-methyltetrahydropyran-4-carbonyl)-3,5-dihydro-2H-pyrido[3,4-f][1,4]oxazepine-9-carbonitrile] | 100 to 1000
COC1(C(=O)N2CCOc3c(C#N)cncc3C2)CCN(c2ccc(F)cn2)CC1 [Example 190, 4-[1-(5-fluoro-2-pyridyl)-4-methoxy-piperidine-4-carbonyl]-3,5-dihydro-2H-pyrido[3,4-f][1,4]oxazepine-9-carbonitrile] | 100 to 1000
N#Cc1cncc2c1OCCN(C(=O)C1(CF)CCN(c3ncc(F)cn3)CC1)C2 [Example 137, 4-(4-(fluoromethyl)-1-(5-fluoropyrimidin-2-yl)piperidine-4-carbonyl)-2,3,4,5-tetrahydropyrido[3,4-f][1,4]oxazepine-9-carbonitrile] | 100 to 1000
COc1nc(N2CCC(F)(C(=O)N3CCOc4c(C#N)cncc4C3)CC2)nc(C)c1F [Example 196, 4-[4-fluoro-1-(5-fluoro-4-methoxy-6-methyl-pyrimidin-2-yl)piperidine-4-carbonyl]-3,5-dihydro-2H-pyrido[3,4-f][1,4]oxazepine-9-carbonitrile] | 100 to 1000
CC(C)(C(=O)N1CCOc2c(F)cncc2C1)C(F)F [Example 55, 3,3-difluoro-1-(9-fluoro-3,5-dihydro-2H-pyrido[3,4-f][1,4]oxazepin-4-yl)-2,2-dimethyl-propan-1-one] | 100 to 1000
N#Cc1cncc2c1OCCN(C(=O)C1(F)CCN(c3ncc(F)cn3)C1)C2 (centres unmarked) [Example 176, 4-[3-fluoro-1-(5-fluoropyrimidin-2-yl)pyrrolidine-3-carbonyl]-3,5-dihydro-2H-pyrido[3,4-f][1,4]oxazepine-9-carbonitrile] | > 1000

Same assay, conditions: GST-hRIPK1 (8-327), mean of at least two independent experiments

Compound | IC50 [nM]
N#Cc1cncc2c1OCCN(C(=O)C1CCN(c3ccnc4c(F)cnn34)CC1)C2 [Example 228, 4-[1-(3-fluoropyrazolo[1,5-a]pyrimidin-7-yl)piperidine-4-carbonyl]-3,5-dihydro-2H-pyrido[3,4-f][1,4]oxazepine-9-carbonitrile] | 0.1 to 100
O=C(C1CCN(c2ccnc3c(F)cnn23)C[C@@H]1F)N1CCOc2c(F)cncc2C1 (stereo partly drawn) [Example 256, (9-fluoro-3,5-dihydro-2H-pyrido[3,4-f][1,4]oxazepin-4-yl)-[(3,4)-trans-3-fluoro-1-(3-fluoropyrazolo[1,5-a]pyrimidin-7-yl)-4-piperidyl]methanone] | 0.1 to 100
CCC(C)(C(=O)N1CCOc2c(C#N)cncc2C1)C(F)F (single isomer, unassigned) [Example 261, 4-(2-(Difluoromethyl)-2-methylbutanoyl)-2,3,4,5-tetrahydropyrido[3,4-f][1,4]oxazepine-9-carbonitrile] | 0.1 to 100
COC1(C(=O)N2CCOc3ccncc3C2)CCN(c2ncc(F)cn2)CC1 [Example 234, 3,5-dihydro-2H-pyrido[3,4-f][1,4]oxazepin-4-yl-[1-(5-fluoropyrimidin-2-yl)-4-methoxy-4-piperidyl]methanone] | 0.1 to 100
COc1nc(N2CCC(C(=O)N3CCOc4ccncc4C3)CC2)ncc1F [Example 238] | 0.1 to 100
O=C(C1CCN(c2ncc(F)cn2)C[C@@H]1F)N1CCOc2ccncc2C1 (stereo partly drawn) [Example 254, 3,5-dihydro-2H-pyrido[3,4-f][1,4]oxazepin-4-yl-[(3,4)-trans-3-fluoro-1-(5-fluoropyrimidin-2-yl)-4-piperidyl]methanone] | 100 to 1000
